Like-named read-outs stand apart in the source and are kept apart here.
Legend:
CHO cells = assay: Viability of CHO cells (MTT); format: cell-based; details: Cricetulus griseus, read-out: IC50 (μM) CHO cells
Method: CHO cells (ATCC, Manassas, Va.) were grown in RPMI-1640 supplemented with 10% fetal calf serum (Sigma, St. Louis, Mo.), 25 mM HEPES and gentimicin (RPMI-10). Cells were seeded in 96 well plates and grown to 50% confluency in 100 μL of RPMI-10 per well prior to the addition of either DMSO alone, or a 10 mg/mL solution of a test compound of the disclosure in DMSO. Compound gradients were prepared by adding 90 μL of RPMI-10 mixed with 10 μL of compound solution to the first well in the series, mixing, transferring 100 μL to the next well, and repeating until the next-to-last well was reached. After 48 hrs, the viability of the cells was determined by discarding the media in the wells and adding 100 μL of 10 mg/mL of 3-[4,5-dimethylthiazol-2-yl]-2,5-diphenyltetrazolium bromide (MTT, Sigma, St. Louis, Mo.) in RPMI-10, incubating the plates for a further hour, and then removing the media and adding 100 μL of DMSO and reading the absorbance at 650 nm (Campling, B. G.; Pym, J.; Galbraith, P. R.; Cole, S. P. Leuk Res 1988, 12(10), 823). The IC50 values of individual compounds were determined using a non-linear regression analysis of the dose-response curve using the computer program SigmaPlot (Jandel Scientific) and are reported in Table 1.

P. falciparum = assay: Anti-Plasmodium activity: viability of P. falciparum cultures (pLDH enzyme assay); format: cell-based; details: read-out: IC50 (μM) P. falciparum
Method: P. falciparum cultures were grown in O+ blood obtained by venipuncture of volunteers. Cultures of the laboratory line ItG were maintained by the method of Trager and Jensen (Trager, W.; Jensen, J. Science 1976, 193, 673) using RPM, 1640 supplemented with 10% human serum (a kind gift obtained under ethical consent from the Chemo Day Care department of the Princess Margaret Hospital, Toronto, Canada) and 50 μM hypoxanthine (RPMI-A). The effects of the test compounds on the viability of P. falciparum cultures were determined using a Lactate Dehydrogenase (LDH) enzyme assay specific to the enzyme found in Plasmodium falciparum (pLDH) (Prudhomme, J. G.; Sherman, I. W. J Immunol Methods 1999, 229(1-2), 169; Makler, M. T.; Ries, J. M.; Williams, J. A.; Bancroft, J. E.; Piper, R. C.; Gibbins, B. L.; Hinrichs, D. J. Am J Trop Med Hyg 1993, 48(6), 739). Briefly, compounds to be tested were dissolved in DMSO afford a solution having a concentration of 10 mg/mL. Two-fold serial dilutions were then produced in 50 μL of RPMI-A in a 96 well plate and then 50 μL of parasite culture (2% hematocrit, 2% parasitemia) were added to each well and the plates were then incubated at 37° C. in 95% N2, 3% CO2, and 2% O2 for 72 hr. The contents of the wells were then re-suspended using a multi-channel pipettor and a 15 μL sample was removed from each well and was added to 100 μL of pLDH enzyme assay mixture (Prudhomme, J. G.; Sherman, I. W. J Immunol Methods 1999, 229(1-2), 169). After 1 hr the absorbance of the wells at 650 nm was determined using a ThermoMax microplate reader (Molecular Devices, Sunnyvale, Calif.). The IC50 values of individual compounds were determined using a non-linear regression analysis of the data^19 using the computer program SigmaPlot (Jandel Scientific) and are reported in Table 1. The IC50 values represent the mean±standard error calculated from four independent determinations. To verify if the poor viability of the cultures was related to inhibited merozoite invasion, samples were taken from treated wells and the presence of extracellular merozoites was confirmed by microscopy.

[1] = CHO cells, 48 hrs, MTT, mean of four determinations ± standard error
[2] = strain line ItG, 72 hr incubation, pLDH assay, mean of four determinations ± standard error

Structure (SMILES) | melting point [°C] | IC50 (P. falciparum; [2]) [µM] | IC50 (CHO cells; [1]) [µM] | IC50 (CHO cells; CHO, 48 h) [µM] | IC50 (P. falciparum; 72 h) [µM]
Cl.Cl.c1cn(CCCCCCCCCCn2ccnc2)cn1 | 143 to 144 | – | – | – | –
Cn1cc[n+](C)c1 [QT70, 1,3-Dimethylimidazolium iodide] | – | 543 ± 66 | 894 ± 19 | – | –
C[n+]1ccn(CCCCCCCCCCCCCCCn2cc[n+](C)c2)c1 [QT101, 1,15-Bis-(3-methylimidazolium-1-yl)pentadecane diiodide] | – | 0.002 ± 0.001 | 1.2 ± 0.2 | – | –
C[n+]1ccn(CCCCCCCCCCCCn2cc[n+](C)c2)c1 [QT89, 1,12-Bis-(3-methylimidazolium-1-yl)dodecane diiodide] | – | 0.009 ± 0.001 | 26 ± 5 | – | –
Cl.Cl.c1cn(CCCCCCn2ccnc2)cn1 | 220 to 221 | – | – | – | –
C[n+]1ccn(CCCCCCCCCCCCCCCCCCCCn2cc[n+](C)c2)c1 [QT116, 1,20-Bis-(3-methylimidazolium-1-yl)eicosane diiodide] | 78 to 80 | 0.0021 ± 0.0005 | 1.4 ± 0.2 | – | –
COc1ccc(Cn2cc[n+](Cc3ccc(OC)cc3)c2)cc1 [QT79, 1,3-Bis-(4-methoxybenzyl)imidazolium chloride] | – | – | – | 30.6 ± 0.7 | 5 ± 1
C[n+]1ccn(CCCCCCCCCCCn2cc[n+](C)c2)c1 [QT118, 1,11-Bis-(3-methylimidazolium-1-yl)undecane diiodide] | – | 0.0061 ± 0.0006 | 42 ± 3 | – | –
Cl.Cl.c1cn(CCCCCCCCn2ccnc2)cn1 | 176 to 177 | – | – | – | –
O=[N+]([O-])c1ccc(Cn2cc[n+](Cc3ccc([N+](=O)[O-])cc3)c2)cc1 [QT85, 1,3-Bis-(4-nitrobenzyl)imidazolium bromide] | – | 9 ± 2 | 227 ± 7 | – | –
C[n+]1ccn(CCCCCCCCCCCCCCn2cc[n+](C)c2)c1 [QT107, 1,14-Bis-(3-methylimidazolium-1-yl)tetradecane diiodide] | – | 0.0032 ± 0.0002 | 11 ± 2 | – | –
O=[N+]([O-])c1ccc(C[n+]2ccn(-c3ccc(-c4ccc(-n5cc[n+](Cc6ccc([N+](=O)[O-])cc6)c5)cc4)cc3)c2)cc1 [QT103, 4,4′-Bis-[3-(4-nitrobenzyl)-1H-imidazolium-1-yl]biphenyl dibromide] | – | 0.026 ± 0.003 | 14 ± 2 | – | –
c1cn(CCCCCCCCCCCCCCCCCCCCn2ccnc2)cn1 [QT-115, 1,20-Bis-(1H-imidazol-1-yl)eicosane] | 58 to 59 | – | – | – | –
Cl.Cl.c1cn(CCCCCCCCCCCCCCCn2ccnc2)cn1 | 98 to 99 | – | – | – | –
CCCn1cc[n+](C)c1 [QT73, 3-Methyl-1-propylimidazolium bromide] | – | 230 ± 83 | 998 ± 83 | – | –
C[n+]1ccn(CCCCCCCCCCn2cc[n+](C)c2)c1 [QT88, 1,10-Bis-(3-methylimidazolium-1-yl)decane diiodide] | – | 0.082 ± 0.009 | 57 ± 5 | – | –
Cl.Cl.c1cn(CCCCCCCCCCCCCCn2ccnc2)cn1 | 142 to 143 | – | – | – | –
Clc1ccc(Cn2cc[n+](Cc3ccc(Cl)cc3)c2)cc1 [QT80, 1,3-Bis-(4-chlorobenzyl)imidazolium chloride] | – | – | – | 105 ± 1 | 9 ± 2

More lines, main results first:

melting point [°C] | IC50 (P. falciparum; [2]) [µM] | Structure (SMILES) | IC50 (CHO cells; [1]) [µM] | IC50 (CHO cells; CHO, 48 h) [µM] | IC50 (P. falciparum; 72 h) [µM]
– | 17 ± 3 | Fc1ccc(Cn2cc[n+](Cc3ccc(F)cc3)c2)cc1 [QT92, 1,3-Bis-(4-fluorobenzyl)imidazolium bromide] | 56 ± 4 | – | –
– | 0.9 ± 0.4 | c1ccc2cc(Cn3cc[n+](Cc4ccc5ccccc5c4)c3)ccc2c1 [QT81, 1,3-Bis-(naphthalen-2-yl-methyl)imidazolium bromide] | 27 ± 1 | – | –
– | 0.12 ± 0.04 | C[n+]1ccn(Cc2ccc(-c3ccc(Cn4cc[n+](C)c4)cc3)cc2)c1 [QT113, 4,4′-Bis-(3-methylimidazolium-1-yl-methyl)biphenyl diiodide] | 125 ± 13 | – | –
– | 0.73 ± 0.03 | Brc1ccc(Cn2cc[n+](Cc3ccc4ccccc4c3)c2)cc1 [QT95, 1-(4-Bromobenzyl)-3-(naphthalen-2-ylmethyl)imidazolium bromide] | 27 ± 5 | – | –
– | 1.05 ± 0.06 | Brc1cccc(Cn2cc[n+](Cc3cccc(Br)c3)c2)c1 [QT83, 1,3-Bis-(3-bromobenzyl)imidazolium bromide] | 132 ± 22 | – | –
– | 1.4 ± 0.6 | Brc1ccccc1Cn1cc[n+](Cc2ccccc2Br)c1 [QT82, 1,3-Bis-(2-bromobenzyl)imidazolium bromide] | 125 ± 10 | – | –
– | 0.045 ± 0.004 | C[n+]1ccn(CCCOc2ccc(OCCCn3cc[n+](C)c3)cc2)c1 [QT123, 1,4-Bis[3-(3-methylimidazolium-1-yl)propoxy]benzene diiodide] | 113 ± 12 | – | –
– | 16 ± 1 | c1ccc(Cn2cc[n+](Cc3ccccc3)c2)cc1 [QT68, 1,3-Dibenzylimidazolium bromide] | 191 ± 3 | – | –
– | 1.4 ± 0.1 | c1ccc(Cn2c[n+](Cc3ccccc3)c(-c3ccccc3)c2-c2ccccc2)cc1 [QT105, 1,3-dibenzyl-4,5-diphenyl-1H-imidazolium bromide] | 21 ± 2 | – | –
– | 2 ± 0.2 | Clc1ccccc1Cn1cc[n+](Cc2ccccc2Cl)c1 [QT90, 1,3-Bis-(2-chlorobenzyl)imidazolium bromide] | 110 ± 23 | – | –
– | 3.1 ± 0.4 | Cn1c[n+](C)c(-c2ccccc2)c1-c1ccccc1 [QT104, 1,3-Dimethyl-4,5-diphenyl-1H-imidazolium iodide] | 385 ± 42 | – | –
– | 67 ± 22 | C[n+]1ccn(CCCCn2cc[n+](C)c2)c1 [QT86, 1,4-Bis-(3-methylimidazolium-1-yl)butane diiodide] | 122 ± 3 | – | –
– | 0.5 ± 0.1 | O=C(Cn1cc[n+](CC(=O)c2ccc(Cc3ccccc3)cc2)c1)c1ccc(Cc2ccccc2)cc1 [QT97, 1,3-Bis-[2-oxo-2-(4-benzylphenyl)ethyl]imidazolium bromide] | 4.3 ± 0.3 | – | –
– | 11.2 ± 0.5 | C[n+]1ccn(-c2ccc(-n3cc[n+](C)c3)cc2)c1 [QT114, 1,4-Bis-(3-methylimidazolium-1-yl)benzene diiodide] | 317 ± 64 | – | –
156 to 157 | 2.6 ± 0.8 | C[n+]1ccn(CCCCCCn2cc[n+](C)c2)c1 [QT87, 1,6-Bis-(3-methylimidazolium-1-yl)hexane diiodide] | 146 ± 14 | – | –
– | 0.35 ± 0.06 | Ic1ccc(Cn2cc[n+](Cc3ccc(I)cc3)c2)cc1 [QT78, 1,3-Bis-(4-iodobenzyl)imidazolium bromide] | 33 ± 1 | – | –
– | 2.9 ± 0.9 | Brc1ccc(C[n+]2ccn(Cc3ccccc3)c2)cc1 [QT75, 1-Benzyl-3-(4-bromobenzyl)imidazolium bromide] | 484.5 ± 0.9 | – | –
– | 0.07 ± 0.01 | C[n+]1cn(-c2ccc(-c3ccc(-n4c[n+](C)c5ccccc54)cc3)cc2)c2ccccc21 [QT110, 4,4′-Bis-(3-methylbenzimidazolium-1-yl)biphenyl diiodide] | 98 ± 24 | – | –
– | 3.3 ± 0.4 | Clc1cccc(Cn2cc[n+](Cc3cccc(Cl)c3)c2)c1 [QT74, 1,3-Bis-(3-chlorobenzyl)imidazolium bromide] | 334.2 ± 0.4 | – | –
– | 4.7 ± 0.9 | C[n+]1ccn(CCCCCCCCn2cc[n+](C)c2)c1 [QT71, 1,8-Bis-(3-methylimidazolium-1-yl)octane diiodide] | 452 ± 49 | – | –
– | 2.6 ± 0.1 | O=C(Cn1cc[n+](CC(=O)c2ccc(Cl)cc2)c1)c1ccc(Cl)cc1 [QT91, 1,3-Bis-[2-oxo-2-(4-chlorophenyl)ethyl]imidazolium bromide] | 53 ± 2 | – | –
